Measurements from ChEMBL document CHEMBL1141040, “Isolation, structure elucidation, preparation, and biological properties of neolambertellin” (Bioorg Med Chem Lett, 2005).
≈ marks a conversion by molar mass, not a printed value.

System: Bipolaris oryzae
Experiment: Inhibitory concentration against hyphal germination of Cochlibolus miyabeanus
Format: functional, organism-based

Question: How did the IC50 turn out when `Cc1cc2cc(O)c3c(O)cccc3c2oc1=O` was run?
Answer: The IC50 was 100 mg/L (≈ 413 µM).
